SMILES strings stand for the structures.

The target in this assay is T1, human recombinant PDE9 protein (hsPDE9A1) (Homo sapiens, UniProt O76083).
T1 construct: made in house; host or cells: COS-1 cells (transient transfection, pcDNA 3.1(+))
The assay can be described thus: Measurement of PDE9-inhibiting activity ([3H]-cGMP hydrolysis). The assay is classed as biochemical. Conditions: for inhibition at 1 µM: human recombinant PDE9, read-out: Inhibiting Activity PDE9 (percent inhibition at 1 μM). As for the experimental part:
(1) Measurement of PDE9-Inhibiting Activity:
1) Preparation of Human Recombinant PDE9 Protein
Based on the base sequence of hsPDE9A1 registered with GenBank database (accession No.: AF048837), hsPDE9A1 fragment was amplified by polymerase chain reaction under the following conditions, using the following sequence (Amasham Pharmacia Biotech) as the primer and Human Prostate […] cDNA library (CLONTECH) as the template DNA, with Pfu Turbo DNA polymerase ([…]):
PCR condition: [95° C., 5 min]×1 cycle, [(95° C., 1 min), (58° C., 2 min), (72° C., 3 min)]×25 cycles, [72° C., 10 min]×1 cycle
Thus obtained hsPDE9A1 fragment was given a restricted enzymatic treatment with NheI and NotI, and thereafter inserted into pcDNA 3.1(+) expression vector (Invitrogen) to let it serve as a human PDE9 expression vector.
Human PDE9 expression vector-transformed Escherichia coli was mass incubated to produce a large amount of human PDE9 expression vector, which was transiently transfected into COS-1 cells, with LIPOFECTAMINE 2000 Reagent (GIBCO). The cells were homogenized in ice-cooled buffer A (40 mmol/L Tris-HCl, pH7.5, 15 mmol/L benzamidine, 15 mmol/L 2-mercaptoethanol, 1 μg/mL Pepstatin A, 1 μg/mL Leupeptin, 5 mmol/L EDTA) and centrifuged at 4° C., 14,000×g for 10 minutes. The supernatant was isolated to provide human recombinant PDE9 protein solution.
2) Measurement of PDE9-Inhibiting Activity
To 150 μL of buffer B (70 mmol/L Tris-HCl, pH7.5; 16.7 mmol/L MgCl2, 33.3 nmol/L [^3H]-cGMP) solution containing [^3H]-cGMP (specific activity=244.2 GBq/mmol) at a concentration of 33.3 nmol/L, 50 μL of a solution of the compound to be evaluated (formed by dissolving the compound in DMSO and diluting it with distilled water to DMSO concentration of 5%) and 50 μL of the PDE9 protein solution as prepared in the above, as diluted with buffer C (40 mmol/L Tris-HCl, pH7.5, 15 mmol/L benzamidine, 15 mmol/L 2-mercaptoethanol, 1 μg/mL Pepstatin A, 1 μg/mL Leupeptin) by 1,500×, were added under cooling with ice. This mixed solution was incubated at 30° C. for 30 minutes and the enzymatic reaction of PDE9 was terminated by heating the system in boiling water for 90 seconds. Returning the system to room temperature, 50 μL of Snake venom (SIGMA: 1 mg/mL) was added, followed by 10 minutes' incubation at 30° C., to convert the [^3H]-5′-GMP produced in the previous reaction to [^3H]-guanosine. This reaction solution was passed through a column filled with 1 mL of 0.5 mol/L hydrochloric acid-activated cation-exchange resin (Bio-Rad AG50W-X4 resin, mesh size 200-400) and removed of the unreacted substrate ([^3H]-cGMP) by elution with 12 mL of distilled water. Thereafter [^3H]-guanosine was eluted with 3 mL of 3 mol/L aqueous ammonia and its radiation activity was measured with liquid scintillation counter.
PDE9 inhibition of the tested compound can be calculated by the following formula: […]
From the percent inhibition at various concentration levels of each tested compound, its IC50 value against PDE9 can be determined.

T1 sequence (O76083 whole entry): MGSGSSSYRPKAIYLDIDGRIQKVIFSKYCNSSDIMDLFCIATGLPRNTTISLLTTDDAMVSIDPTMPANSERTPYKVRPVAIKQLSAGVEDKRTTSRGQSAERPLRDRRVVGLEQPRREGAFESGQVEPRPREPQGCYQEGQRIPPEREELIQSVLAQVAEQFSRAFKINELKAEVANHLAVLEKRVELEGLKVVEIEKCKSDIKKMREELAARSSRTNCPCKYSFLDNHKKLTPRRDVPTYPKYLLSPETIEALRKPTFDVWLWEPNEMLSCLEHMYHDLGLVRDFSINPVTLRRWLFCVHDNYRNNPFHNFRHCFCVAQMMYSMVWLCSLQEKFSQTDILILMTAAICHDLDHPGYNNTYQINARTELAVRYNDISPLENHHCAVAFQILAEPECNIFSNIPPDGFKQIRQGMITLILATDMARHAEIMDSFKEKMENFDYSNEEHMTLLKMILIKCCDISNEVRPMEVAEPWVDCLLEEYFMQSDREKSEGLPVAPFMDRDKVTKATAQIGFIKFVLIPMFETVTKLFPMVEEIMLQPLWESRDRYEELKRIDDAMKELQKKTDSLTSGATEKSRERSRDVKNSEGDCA

As to `COc1ccc(Cc2nc3cc(C(=O)O)ccc3c(=O)[nH]2)cc1OC` [Example 3, 2-(3,4-Dimethoxybenzyl)-4-oxo-3,4-dihydroquinazoline-7-carboxylic acid], the inhibition at 1 µM came out at 11%.

Regarding `COc1cccc(Cc2nc3cc(C(=O)O)ccc3c(=O)[nH]2)c1` [Example 5, 2-(3-Methoxybenzyl)-4-oxo-3,4-dihydroquinazoline-7-carboxylic acid], the inhibition at 1 µM amounted to 41%.

For `O=C(O)c1ccc2c(=O)[nH]c(Cc3ccccn3)nc2c1` [Example 6, 4-Oxo-2-(2-pyridylmethyl)-3,4-dihydroquinazoline-7-carboxylic acid], for the setting “human recombinant PDE9 expressed in COS-1 cells, 30° C., 30 minutes”, the IC50 came to 1.36 µM.

Take `O=C(O)c1ccc2c(=O)[nH]c(Cc3cccnc3)nc2c1` [Example 7, 4-Oxo-2-(3-pyridylmethyl)-3,4-dihydroquinazoline-7-carboxylic acid]: the inhibition at 1 µM amounted to 30%.

Turning to `Cn1c(Cc2cccc(Cl)c2)nc2cc(C(=O)O)ccc2c1=O` [Referential Example 1, 2-(3-Chlorobenzyl)-3-methyl-4-oxo-3,4-dihydroquinazoline-7-carboxylic acid, reference compound], the “PDE9-inhibiting activity relative to that of the compound of Example 1” value (ratio of activity versus Example 1) is listed as “less than 1/100”.

The record behind these values is US8101624B2, “Quinazoline derivatives” (Aska Pharmaceutical Co., Ltd., priority 2006, dated 2012).
